Laboratory results taken from US8173695B2, “Kappa selective opioid receptor antagonist” (Eli Lilly and Company, priority 2008, dated 2012).
Where “and” joins values, the source holds several entries; their conditions need not be identical. Identical values can stand only once.

Tests used:
Male Fischer F-344 rats = test: Stress-induced hyperthermia (in rat); type: in vivo; conditions: for stress-induced hyperthermia (T2−T1): in °C
Male NIH-Swiss mice = test: Mouse forced swim test; type: in vivo; conditions: for immobility in mouse forced swim test, Mean: 30 min
Excerpt: This test evaluates the effect of test compound on mice mobility as a measure of antidepressant effect. The less immobility compared to vehicle, the more pronounced the antidepressant-like effect.
Male, NIH-Swiss mice (25-30 g) (Harlan Sprague-Dawley, Indianapolis, Ind., USA) are housed in a vivarium for at least one week prior to use with water and rodent chow freely available during this acclimation period. Animals are removed from the vivarium to the testing area in their home cages and allowed to adapt to the new environment for at least one hour before testing.
Mice are placed in clear plastic cylinders (diameter: 10 cm; height: 25 cm) filled with 6 cm of water (22-25° C.) for six minutes. The duration of immobility during the last four minutes of the six minutes test period is scored. A mouse is recorded as immobile when floating motionless or making only those movements necessary to keep its head above water.
The test compound is administered p.o. 1 hour prior to testing at 1.0 mg/kg, 3.0 mg/kg and 10.0 mg/kg, n of 8 per group in a vehicle of 5 ml of sterile water and 30 ml of diluted (10×) lactic acid. Imipramine is evaluated as a positive control, 15 mg/kg: p, 30 min. prior to testing n of 4.
A second study is carried out evaluating 1 and 3 mg/kg doses of the compound of Example 1A alone and in combination with 5 mg/kg of imipramine. Imipramine alone is evaluated at 5 and 15 mg/kg doses and a vehicle control is included in the study. For the combination studies, the compound of Example 1A is administered p.o. 30 minutes prior to administration of imipramine i.p. and the test initiated 30 minutes following imipramine administration. An n of 8 per group is evaluated for all groups. For the evaluations of the compound of Example 1A alone, testing is initiated 60 minutes following administration and testing of imipramine only treated animals is initiated 30 minutes following administration.

Sprague Dawley rats = test: Prepulse inhibition, reversal of morphine induced disruption of PPI; type: in vivo, rat; conditions: vehicle/20 mg/kg morphine sc; 20 mg/kg
[1] = Study 1, positive control 10 mg/kg

Structure (SMILES): CNC1=Nc2ccc(Cl)cc2C(c2ccccc2)=[N+]([O-])C1 [CDP, chlordiazepoxide, reference compound]
- stress-induced hyperthermia (T2−T1) (Male Fischer F-344 rats; Study 2, 1 mg/kg CDP alone, po): 0.75±0.06

Structure (SMILES): CN(C)CCCN1c2ccccc2CCc2ccccc21 [Imipramine, imipramine, reference compound]
- immobility in mouse forced swim test, Mean (Male NIH-Swiss mice; Imipramine 5 mg/kg i.p.): 161.94 s
- immobility in mouse forced swim test, Mean (Male NIH-Swiss mice; Imipramine 15 mg/kg i.p.): 61.70 s
- antidepressant effect, in words (Male NIH-Swiss mice; imipramine 15 mg/kg, over vehicle control, p<0.05): statistically significant antidepressant effect

Structure (SMILES): CN1CC[C@]23c4c5ccc(O)c4O[C@H]2[C@@H](O)C=C[C@H]3[C@H]1C5 [morphine, reference compound]
- % Inhibition (PPI), individual rats (Sprague Dawley rats): 26.99% and −12.64% and 34.65% and 32.59% and 5.49% and 49.11% and 53.95% and 44.81% and 35.01% and −9.49% and 51.85% and 24.04% and 4.72% and 50.03%

Structure (SMILES): Cc1nc(C#Cc2cccnc2)cs1 [MTEP, 3-[(2-methyl-1,3-thiazol-4-yl)ethynyl]pyridine, reference compound]
- baseline body temperatures (Male Fischer F-344 rats; [1]): without affecting
- reduction in stress-induced hyperthermia, in words (Male Fischer F-344 rats; Study 1, positive control 10 mg/kg, p<0.05): significantly reduces
- stress-induced hyperthermia (T2−T1) (Male Fischer F-344 rats; [1]): 0.42±0.09
